Measured values: patent publication US20250325534A1, “MICROBIOCIDAL TETRAHYDROISOQUINOLINE DERIVATIVES” (SYNGENTA CROP PROTECTION AG, priority 2021, published 2025)

Legend:
[1] = system: Alternaria solani; test: Alternaria solani / tomato / leaf disc (early blight); assay type: in vivo; conditions: foliar, inoculated 2 days after application, vs untreated control
Experimental: Example B1: Alternaria solani/Tomato/Leaf Disc (Early Blight) Tomato leaf disks cv. Baby are placed on agar in multiwell plates (24-well format) and sprayed with the formulated test compound diluted in water. The leaf disks are inoculated with a spore suspension of the fungus 2 days after application. The inoculated leaf disks are incubated at 23° C./21° C. (day/night) and 80% relative humidity under a light regime of 12 h/12 h (light/dark) in a climate cabinet and the activity of a compound is assessed as percent disease control compared to untreated when an appropriate level of disease damage appears on untreated check disk leaf disks (5-7 days after application).

[2] = system: Glomerella lagenarium; test: Glomerella lagenarium (Colletotrichum lagenarium) / liquid culture (anthracnose); assay type: cell-based; conditions: Colletotrichum orbiculare, 72 h, photometrically 3-4 days after application, read-out: control of Glomerella lagenarium
Experimental: Example B5: Glomerella Lagenarium (Colletotrichum Lagenarium)/Liquid Culture (Anthracnose) Conidia of the fungus from cryogenic storage are directly mixed into a nutrient broth (potato dextrose broth). After placing a DMSO solution of test compound into a microtiter plate (96-well format), the nutrient broth containing the fungal spores is added. The test plates are incubated at 24° C. and the inhibition of growth is measured photometrically 3-4 days after application.

[3] = system: Monographella nivalis; test: Monographella nivalis (Microdochium nivale) / liquid culture (foot rot cereals); assay type: cell-based; conditions: 96 h, photometrically 4-5 days after application, read-out: control of Monographella nivalis
How it was run: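 Test compound, applied as a DMSO solution, was challenged with fungal spores suspended in potato dextrose broth; after 4-5 days at 24° C, photometric readout gave inhibition of growth.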

[4] = system: Mycosphaerella arachidis; test: Mycosphaerella arachidis (Cercospora arachidicola) / liquid culture (early leaf spot); assay type: cell-based; conditions: 96 h, photometrically 4-5 days after application, read-out: control of Mycosphaerella arachidis
How it was run: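 Photometric growth inhibition, read 4-5 days post-application at 24 °C, of Cercospora arachidicola spores suspended in potato dextrose broth and exposed to test compound delivered from DMSO solution.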

[5] = system: Mycosphaerella graminicola; test: Mycosphaerella graminicola (Septoria tritici) / liquid culture (Septoria blotch); assay type: cell-based; conditions: Zymoseptoria tritici, 96 h, photometrically 4-5 days after application, read-out: control of Mycosphaerella graminicola
How it was run: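 Growth inhibition measured by photometry 4-5 days post application, at 24° C incubation. Test compound supplied as DMSO solution; fungal conidia from cryostorage suspended directly in potato dextrose broth as inoculum.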

[6] = system: Botryotinia fuckeliana; test: Botryotinia fuckeliana (Botrytis cinerea) / liquid culture (gray mould); assay type: cell-based; conditions: 72 h, growth inhibition photometrically 3-4 days after application, read-out: control of Botryotinia fuckeliana
Experimental: Example B2: Botryotinia Fuckeliana (Botrytis cinerea)/Liquid Culture (Gray Mould) Conidia of the fungus from cryogenic storage are directly mixed into a nutrient broth (Vogels broth). After placing a DMSO solution of test compound into a microtiter plate (96-well format), the nutrient broth containing the fungal spores is added. The test plates are incubated at 24° C. and the inhibition of growth is determined photometrically 3-4 days after application.

Cn1cc(C2CN(C(=O)c3cc(-c4ccccc4)on3)Cc3ccccc32)cn1 (single isomer, unassigned) [Compound P-165]
≥ 80%: pest or weed control at 200 ppm [1] | inhibition of growth at 20 ppm [2] | inhibition of growth at 20 ppm [3] | inhibition of growth at 20 ppm [4] | inhibition of growth at 20 ppm [5]

Cn1cc(C2CN(C(=O)c3nnc(-c4ccc(F)cc4F)s3)Cc3ccccc32)cn1 (stereo not shown) [Compound P-1, [5-(2,4-difluorophenyl)-1,3,4-thiadiazol-2-yl]-[4-(1-methylpyrazol-4-yl)-3,4-dihydro-1H-isoquinolin-2-yl]methanone]
≥ 80%: inhibition of growth at 20 ppm [6] | inhibition of growth at 20 ppm [2] | inhibition of growth at 20 ppm [3] | inhibition of growth at 20 ppm [4] | inhibition of growth at 20 ppm [5]

Cc1c(C2(C)CN(C(=O)c3cc(-c4ccc(F)cc4F)on3)C(C)c3ccccc32)cnn1C (stereo not shown) [Compound P-16, [5-(2,4-difluorophenyl)isoxazol-3-yl]-[4-(1,5-dimethylpyrazol-4-yl)-1,4-dimethyl-1,3-dihydroisoquinolin-2-yl]methanone]
≥ 80%: inhibition of growth at 20 ppm [6] | inhibition of growth at 20 ppm [2] | inhibition of growth at 20 ppm [3] | inhibition of growth at 20 ppm [4] | inhibition of growth at 20 ppm [5]

COc1ccc2c(c1)C(c1cnn(C)c1)CN(C(=O)c1cc(-c3ccc(F)cc3F)on1)C2C (stereo not shown) [Compound P-47, [5-(2,4-difluorophenyl)isoxazol-3-yl]-[6-methoxy-1-methyl-4-(1-methylpyrazol-4-yl)-3,4-dihydro-1H-isoquinolin-2-yl]methanone]
≥ 80%: inhibition of growth at 20 ppm [6] | inhibition of growth at 20 ppm [2] | inhibition of growth at 20 ppm [3] | inhibition of growth at 20 ppm [4] | inhibition of growth at 20 ppm [5]

Cn1cc(C2CN(C(=O)c3noc(-c4cccc(F)c4)n3)Cc3ccccc32)cn1 (stereo not shown) [Compound P-92, [5-(3-fluorophenyl)-1,2,4-oxadiazol-3-yl]-[4-(1-methylpyrazol-4-yl)-3,4-dihydro-1H-isoquinolin-2-yl]methanone]
≥ 80%: pest or weed control at 200 ppm [1] | inhibition of growth at 20 ppm [2] | inhibition of growth at 20 ppm [3] | inhibition of growth at 20 ppm [4] | inhibition of growth at 20 ppm [5]

Cc1nn(C)c(C)c1C1CN(C(=O)c2cc(-c3ccc(F)cc3)on2)Cc2ccccc21 (stereo not shown) [Compound P-118, [5-(4-fluorophenyl)isoxazol-3-yl]-[4-(1,3,5-trimethylpyrazol-4-yl)-3,4-dihydro-1H-isoquinolin-2-yl]methanone]
≥ 80%: pest or weed control at 200 ppm [1] | inhibition of growth at 20 ppm [4] | inhibition of growth at 20 ppm [5]

Cn1cc(C2CN(C(=O)c3nc(-c4ccc(F)cc4F)no3)Cc3ccccc32)cn1 (stereo not shown) [Compound P-127, [3-(2,4-difluorophenyl)-1,2,4-oxadiazol-5-yl]-[4-(1-methylpyrazol-4-yl)-3,4-dihydro-1H-isoquinolin-2-yl]methanone]
≥ 80%: pest or weed control at 200 ppm [1] | inhibition of growth at 20 ppm [3] | inhibition of growth at 20 ppm [5]

CCn1cc(C2CN(C(=O)c3cc(-c4ccc(F)cc4F)on3)Cc3ccccc32)cn1 (stereo not shown) [Compound P-131, [5-(2,4-difluorophenyl)isoxazol-3-yl]-[4-(1-ethylpyrazol-4-yl)-3,4-dihydro-1H-isoquinolin-2-yl]methanone]
≥ 80%: pest or weed control at 200 ppm [1] | inhibition of growth at 20 ppm [5]

Cn1cc(C2CN(C(=O)c3cc(-c4ccc(F)cc4F)on3)Cc3cc(F)ccc32)cn1 (stereo not shown) [Compound P-134, [5-(2,4-difluorophenyl)isoxazol-3-yl]-[7-fluoro-4-(1-methylpyrazol-4-yl)-3,4-dihydro-1H-isoquinolin-2-yl]methanone]
≥ 80%: pest or weed control at 200 ppm [1] | inhibition of growth at 20 ppm [3] | inhibition of growth at 20 ppm [4] | inhibition of growth at 20 ppm [5]

Cn1cc(C2CN(C(=O)c3cc(-c4ccc(F)cc4F)on3)Cc3ccc(F)cc32)cn1 (stereo not shown) [Compound P-135, [5-(2,4-difluorophenyl)isoxazol-3-yl]-[6-fluoro-4-(1-methylpyrazol-4-yl)-3,4-dihydro-1H-isoquinolin-2-yl]methanone]
≥ 80%: inhibition of growth at 20 ppm [6] | inhibition of growth at 20 ppm [3] | inhibition of growth at 20 ppm [4] | inhibition of growth at 20 ppm [5]

Cc1nn(C)c(C)c1C1CN(C(=O)c2cc(-c3ccccc3)on2)Cc2ccccc21 (stereo not shown) [Compound P-148, (5-phenylisoxazol-3-yl)-[4-(1,3,5-trimethylpyrazol-4-yl)-3,4-dihydro-1H-isoquinolin-2-yl]methanone]
≥ 80%: pest or weed control at 200 ppm [1] | inhibition of growth at 20 ppm [4] | inhibition of growth at 20 ppm [5]

Cn1cc(C2CN(C(=O)c3nc(-c4ccccc4)no3)Cc3ccccc32)cn1 (stereo not shown) [Compound P-152, [4-(1-methylpyrazol-4-yl)-3,4-dihydro-1H-isoquinolin-2-yl]-(3-phenyl-1,2,4-oxadiazol-5-yl)methanone]
≥ 80%: inhibition of growth at 20 ppm [6] | inhibition of growth at 20 ppm [2] | inhibition of growth at 20 ppm [3] | inhibition of growth at 20 ppm [4] | inhibition of growth at 20 ppm [5]

Cn1cc(C2CN(C(=O)c3cc(-c4cccc(F)c4)no3)Cc3ccccc32)cn1 (stereo not shown) [Compound P-159, [3-(3-fluorophenyl)isoxazol-5-yl]-[4-(1-methylpyrazol-4-yl)-3,4-dihydro-1H-isoquinolin-2-yl]methanone]
≥ 80%: inhibition of growth at 20 ppm [6] | inhibition of growth at 20 ppm [3] | inhibition of growth at 20 ppm [4] | inhibition of growth at 20 ppm [5]

Cn1cc(C2CN(C(=O)c3cc(-c4cccc(F)c4)on3)Cc3ccccc32)cn1 (stereo not shown) [Compound P-168, [5-(3-fluorophenyl)isoxazol-3-yl]-[4-(1-methylpyrazol-4-yl)-3,4-dihydro-1H-isoquinolin-2-yl]methanone]
≥ 80%: pest or weed control at 200 ppm [1] | inhibition of growth at 20 ppm [5]

Cn1cc(C2CN(C(=O)c3cc(-c4ccsc4)on3)Cc3ccccc32)cn1 (stereo not shown) [Compound P-181, [4-(1-methylpyrazol-4-yl)-3,4-dihydro-1H-isoquinolin-2-yl]-[5-(3-thienyl)isoxazol-3-yl]methanone]
≥ 80%: pest or weed control at 200 ppm [1] | inhibition of growth at 20 ppm [2] | inhibition of growth at 20 ppm [4] | inhibition of growth at 20 ppm [5]

Cn1cc(C2CN(C(=O)c3cc(C4CCC4)on3)Cc3ccccc32)cn1 (stereo not shown) [Compound P-182, (5-cyclobutylisoxazol-3-yl)-[4-(1-methylpyrazol-4-yl)-3,4-dihydro-1H-isoquinolin-2-yl]methanone]
≥ 80%: pest or weed control at 200 ppm [1] | inhibition of growth at 20 ppm [4] | inhibition of growth at 20 ppm [5]

Cn1cc(C2CN(C(=O)c3cc(-c4ccccc4F)on3)Cc3ccccc32)cn1 (stereo not shown) [Compound P-191, [5-(2-fluorophenyl)isoxazol-3-yl]-[4-(1-methylpyrazol-4-yl)-3,4-dihydro-1H-isoquinolin-2-yl]methanone]
≥ 80%: pest or weed control at 200 ppm [1] | inhibition of growth at 20 ppm [2] | inhibition of growth at 20 ppm [3] | inhibition of growth at 20 ppm [4] | inhibition of growth at 20 ppm [5]

Cn1cc(C2CN(C(=O)c3cc(-c4ccc(F)cc4)on3)Cc3ccccc32)cn1 (stereo not shown) [Compound P-192, [5-(4-fluorophenyl)isoxazol-3-yl]-[4-(1-methylpyrazol-4-yl)-3,4-dihydro-1H-isoquinolin-2-yl]methanone]
≥ 80%: inhibition of growth at 20 ppm [6] | inhibition of growth at 20 ppm [2] | inhibition of growth at 20 ppm [5]
